Literature values in patent US10617778B2, “Self-sterilizing package and methods for making and using the same” (priority 2014, dated 2020).

Test system: humans

[O][Cl+][O-] [chlorine dioxide]
vapor concentration at which the gas can be toxic: greater than 0.3 ppm
